Data taken from EP4537832A1, “METHOD FOR TREATING CANCER PATIENT WITH AKR1C3 ENZYME-ACTIVATED PRODRUG” (Ascentawits Pharmaceuticals, Ltd., priority 2022, dated 2023).

What was measured:
p-ERK2 = assay: Western blot in HPAF II cells with MEK/ERK modulators and AST: p-ERK2; assay type: cell-based
Description: The experiment used three types of MEK/ERK modulators, including two inhibitors and one activator. The inhibitors were PD98059, a MEK1/2 specific inhibitor, and Suramin, a broad-spectrum growth factor receptor inhibitor; while the activator of the ERK signaling pathway is Phorbol Ester (TPA). The chemical structures of inhibitor PD98059, inhibitor Suramin, and activator TPA are as follows: [drawing 48] [drawing 49] [drawing 50]
The experiment was assigned to inhibitor group and activator group, both of which were performed by Western Blot and cell apoptosis experiments.
In the Western blot experiment, HPAF II cell suspensions were treated with each group of compounds, and cultured overnight in a 37 °C, 5% CO2 incubator, and the cell protein lysate was collected for Western blot (WB) detection.
(§1) The specific compounds to be treated in the Western blot inhibitor group and activator group are as follows: Inhibitor group: 1% DMSO treatment group, 1 µM AST treatment group, 30 µM PD98059 treatment group, 1 mM Suramin treatment group, 1 µM AST + 30 µM PD98059 treatment group, and 1 µM AST + 1 mM Suramin treatment group; and Activator group: 1% DMSO treatment group, 0.5 µM AST treatment group, 25 nM TPA treatment group, and 0.5 µM AST + 25 nM TPA treatment group.

HPAF II cells = assay: Cell apoptosis detection (Caspase Glo 3/7) in HPAF II cells with MEK/ERK modulators and AST; assay type: cell-based
Experimental: Additionally, cell apoptosis detection was performed as follows: • 1) Caspase Glo® 3/7 reagents were prepared and equilibrated to room temperature. The buffer of the reagents and the substrate were mixed homogeneously at 1:1 to prepare Caspase Glo® 3/7 reagents. The configured reagents can be stored at 4 °C for 3 days. • 2) 100 µL Caspase Glo® 3/7 reagents were added to each well of culture medium containing 100 µL blank (wells without cells), negative control cells, or treated cells. Due to the sensitivity of the analysis, be careful not to make the tip of the pipette to touch the holes that contained samples to avoid cross contamination. The plates were covered with a plate sealant or lid. • 3) The reagent solutions were mixed gently using a shaker at a speed of 300-500 rpm for 30 seconds, and left in the dark at room temperature for 1 hour. • 4) The luminescence of each sample was measured in a plate reading photometer. And the luminescence value of each group was calculated, and analyze by making a column diagram.
as §1, with “apoptosis” for “Western blot”, “Inhibition” for “Inhibitor”, “1” for “0.5”, “50” for “25”

AKR1C3 = conditions: HPAF II cells; increasing SFN concentration 0.875-7 µM, overnight
Experimental: (§2) The solution of SFN compound (Sulforaphane, NRF2 activator) was added to HPAF II cell suspension, cultured overnight in a 37 °C, 5% CO2 incubator, and the cell protein lysate was collected for Western blot (WB) detection.
(§3) The experiment was assigned to 5 groups: 0.5% DMSO, 0.875 µM SFN, 1.75 µM SFN, 3.5 µM SFN, and 7 µM SFN.
(§4) HPAF II cells were treated with different concentrations of NRF2 activator SFN, and then the expression of NRF2 and AKR1C3 was detected by Western blot.

NRF2 = conditions: HPAF II cells; increasing SFN concentration 0.875-7 µM, overnight
Experimental: as §2, §3, §4

COc1cccc(-c2cc(=O)c3ccccc3o2)c1N [PD98059, reference compound]
expression level of p-ERK2 (p-ERK2; 30 µM PD98059 alone): slightly reduced
cell apoptosis (Caspase 3/7 luminescence) (HPAF II cells; 30 µM PD98059 monotherapy): almost no effect on cell apoptosis

C[S+]([O-])CCCCN=C=S (stereo not drawn) [SFN, Sulforaphane]
expressions of AKR1C3 (AKR1C3): also increased simultaneously
expressions of NRF2 (NRF2): significantly increased

Cc1ccc(C(=O)Nc2ccc(S(=O)(=O)O)c3cc(S(=O)(=O)O)cc(S(=O)(=O)O)c23)cc1NC(=O)c1cccc(NC(=O)Nc2cccc(C(=O)Nc3cc(C(=O)Nc4ccc(S(=O)(=O)O)c5cc(S(=O)(=O)O)cc(S(=O)(=O)O)c45)ccc3C)c2)c1 [suramin, Suramin, reference compound]
expression level of p-ERK2 (p-ERK2; 1 mM Suramin alone): slightly reduced
cell apoptosis (Caspase 3/7 luminescence) (HPAF II cells; 1 mM Suramin monotherapy): almost no effect on cell apoptosis
